Results as given in patent publication US20220105183A1, “MICRO-NANO STRUCTURE FORMED BY SELF-ASSEMBLING ORGANIC SMALL MOLECULE COMPOUND AND USE THEREOF” (Qingdao University of Science and Technology, priority 2018, published 2022).

Columns and labels:
HeLa cells = experiment: Cell photothermal experiment; assay type: cell-based
Experimental: HeLa cells were digested from the culture flask with trypsin, centrifuged, added to a DMEM medium containing 10% serum and 1% double antibody, and mixed well. 20 μL of cells were taken and stained with Compound II-1 (20 μM) for 30 minutes. After taking it out, it was centrifuged and rinsed twice with PBS. After centrifuging, 20 μL of culture medium and 20 μL of trypan blue were added. 20 μL was taken from the mixture to the cell count plate and photographed under fluorescence microscope. In the absence of laser irradiation, bright live cells were observed under the microscope, and the cell survival rate was 92%. When irradiated with 808 nm laser for 6 minutes, almost all the blue dead cells were observed under the microscope, and the cell death rate was as high as 100%. HeLa cells were cultured in 96-well plates, 10^4 cells per well, and live/dead staining after 24 h. The cells were irradiated with an 808 nm laser for 6 minutes, and the photographs were observed under a fluorescent microscope. […] It can be seen that the toxicity of the compound itself is extremely small, but its photothermal effect is particularly lethal to cancer cells, and it has bright prospects in the future clinical application of photothermal treatment of cancer. Other compounds of the present invention also have similar photothermal therapeutic effects.

[1] = Fluorescence imaging and photothermal treatment in sentinel lymphatic metastasis model mice; assay type: in vivo
Experimental: Cell preparation: The cells in the culture flask were digested with trypsin and placed in a centrifuge tube for use. The supernatant was discarded by centrifugation and counted. Then a large amount of medium was added and it was placed in a foam box to be taken to the company. The supernatant was removed by centrifugation, and about 3.5 mL of serum-free medium was added. It was prepared for injection.
After that, small animal fluorescence imaging and photothermal therapy can be performed.
Fluorescence imaging for the small animal was performed on the established mouse metastasis model. Using tail vein injection and intratumoral injection (FIG. 22), fluorescence detection was performed every 1 hour for a total of 5 hours.
The mice were treated with photothermal therapy after injection of tumor cells on the right hind foot pad with obvious sentinel lymph nodes (about 20 days). In this experiment, mice were randomly divided into 3 groups, each group 5 mice, saline+laser irradiation control group, intratumoral injection+laser irradiation experimental group and tail vein injection+laser irradiation experimental group, respectively.
After photothermal treatment of the mice, the mice were photographed and their weights were recorded every 5 days. […] After the mice were stained with ink on the lungs on day 20, the lungs of the mice were photographed.

What does the source list for CCN1C(=CC=C2CCCC(C=CC3=C(C#N)C(=C(C#N)C#N)OC3(C)C)=C2Cl)C(C)(C)c2ccccc21 [II-1]?
dead cells, live/dead staining (HeLa cells; HeLa in 96-well plates, 808 nm laser 6 minutes): 100%; live/dead staining, compound only (HeLa cells; HeLa in 96-well plates, only the compound added, without laser irradiation): the cells were all alive; cell death rate (HeLa cells; HeLa, 20 μM for 30 minutes, 808 nm laser 6 minutes, trypan blue): 100%; cell survival rate (HeLa cells; HeLa, 20 μM for 30 minutes, no laser irradiation, trypan blue): 92%; body weight ([1]; intratumoral injection + laser): stable in a healthy state; body weight ([1]; tail vein injection + laser): decreased on the tenth day
